Source: PubChem BioAssay AID1963971 (Molecular Pharmacology Branch, DTP, NCI, 2024)

Test system: 953936-095-R-J2-PDC spheroids with HUVEC/MSC, viability
Assay: Anticancer human tumor 953936-095-R-J2-PDC patient-derived cervical squamous cell carcinoma cell line growth inhibition [PI3K]
Conditions: for IC50: curve of first compound; for viability, T/C: stronger effect = lower value
Method in brief: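 We assembled tumor spheroids that included a stromal compartment of HUVEC and MSCs, then exposed them to targeted agents alone and together with PI3K pathway inhibitors. Concentration series descended by half-log from clinically achievable Cmax levels. Viability served as the endpoint.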

[1] = second compound 0.0316 µM, first compound 0.0316 µM
[2] = second compound 0.0316 µM, first compound 0.1 µM
[3] = second compound 0.0316 µM, first compound 0.316 µM
[4] = second compound 0.0316 µM, first compound 1 µM
[5] = second compound 0.0316 µM, first compound 3.16 µM
[6] = second compound 0.0316 µM, first compound 10 µM
[7] = second compound 0.1 µM, first compound 0.0316 µM
[8] = second compound 0.1 µM, first compound 0.1 µM
[9] = second compound 0.1 µM, first compound 0.316 µM
[10] = second compound 0.1 µM, first compound 1 µM
[11] = second compound 0.1 µM, first compound 3.16 µM
[12] = second compound 0.1 µM, first compound 10 µM
[13] = second compound 0.316 µM, first compound 0.0316 µM
[14] = second compound 0.316 µM, first compound 0.1 µM
[15] = second compound 0.316 µM, first compound 0.316 µM
[16] = second compound 0.316 µM, first compound 1 µM
[17] = second compound 0.316 µM, first compound 3.16 µM
[18] = second compound 0.316 µM, first compound 10 µM
[19] = second compound 1 µM, first compound 0.0316 µM
[20] = second compound 1 µM, first compound 0.1 µM
[21] = second compound 1 µM, first compound 0.316 µM
[22] = second compound 1 µM, first compound 1 µM
[23] = second compound 1 µM, first compound 3.16 µM
[24] = second compound 1 µM, first compound 10 µM
[25] = second compound 3.16 µM, first compound 0.0316 µM
[26] = second compound 3.16 µM, first compound 0.1 µM
[27] = second compound 3.16 µM, first compound 0.316 µM
[28] = second compound 3.16 µM, first compound 1 µM
[29] = second compound 3.16 µM, first compound 3.16 µM
[30] = second compound 3.16 µM, first compound 10 µM
[31] = second compound 10 µM, first compound 0.0316 µM
[32] = second compound 10 µM, first compound 0.1 µM
[33] = second compound 10 µM, first compound 0.316 µM
[34] = second compound 10 µM, first compound 1 µM
[35] = second compound 10 µM, first compound 3.16 µM
[36] = second compound 10 µM, first compound 10 µM
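Also: spheroids exposed to compounds for seven days before read-out.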

With `CC1(C)CCC(CN2CCN(c3ccc(C(=O)NS(=O)(=O)c4ccc(NCC5CCOCC5)c([N+](=O)[O-])c4)c(Oc4cnc5[nH]ccc5c4)c3)CC2)=C(c2ccc(Cl)cc2)C1` + Cc1nc(NC(=O)N2CCCC2C(N)=O)sc1-c1ccnc(C(C)(C)C(F)(F)F)c1 as the compound, how does the IC50 (second compound 0.0316 µM) read?
Its IC50 is 6.77 µM.

What about the IC50 (second compound 0.1 µM) of the same compound?
The IC50 was 7.01 µM.

And the IC50 (second compound 0.316 µM)?
The IC50 was 5.15 µM.

What about the IC50 (second compound 1 µM) of the same compound?
The IC50 was under 0.0316 µM.

What about the IC50 (second compound 3.16 µM) of the same compound?
Its IC50 is under 0.0316 µM.

What about the IC50 (second compound 10 µM) of the same compound?
Its IC50 is under 0.0316 µM.

And the viability, T/C [1]?
The viability, T/C was 88.8%.

What about the viability, T/C [2] of the same compound?
Its viability, T/C is 96.5%.

What about the viability, T/C [3] of the same compound?
Its viability, T/C is 97.6%.

And the viability, T/C [4]?
Its viability, T/C is 100%.

And the viability, T/C [5]?
Its viability, T/C is 109%.

And the viability, T/C [6]?
Its viability, T/C is 25.2%.

And the viability, T/C [7]?
Its viability, T/C is 90.7%.

And the viability, T/C [8]?
Its viability, T/C is 82.5%.

What about the viability, T/C [9] of the same compound?
Its viability, T/C is 82.7%.

What about the viability, T/C [10] of the same compound?
Its viability, T/C is 85.7%.

And the viability, T/C [11]?
Its viability, T/C is 96%.

And the viability, T/C [12]?
Its viability, T/C is 33.5%.

What about the viability, T/C [13] of the same compound?
The viability, T/C was 65.3%.

And the viability, T/C [14]?
The viability, T/C was 64.1%.

What about the viability, T/C [15] of the same compound?
The viability, T/C was 61.1%.

What about the viability, T/C [16] of the same compound?
The viability, T/C was 63.4%.

What about the viability, T/C [17] of the same compound?
The viability, T/C was 67.8%.

And the viability, T/C [18]?
Its viability, T/C is 30.5%.

What about the viability, T/C [19] of the same compound?
Its viability, T/C is 52.5%.

And the viability, T/C [20]?
The viability, T/C was 47.6%.

And the viability, T/C [21]?
Its viability, T/C is 41.2%.

What about the viability, T/C [22] of the same compound?
The viability, T/C was 40.5%.

And the viability, T/C [23]?
Its viability, T/C is 40%.

What about the viability, T/C [24] of the same compound?
The viability, T/C was 19.3%.

What about the viability, T/C [25] of the same compound?
Its viability, T/C is 27.4%.

What about the viability, T/C [26] of the same compound?
The viability, T/C was 27.2%.

What about the viability, T/C [27] of the same compound?
The viability, T/C was 25.6%.

And the viability, T/C [28]?
The viability, T/C was 26.3%.

What about the viability, T/C [29] of the same compound?
Its viability, T/C is 22.3%.

What about the viability, T/C [30] of the same compound?
Its viability, T/C is 20.4%.

And the viability, T/C [31]?
Its viability, T/C is 11.4%.

What about the viability, T/C [32] of the same compound?
The viability, T/C was 10.8%.

What about the viability, T/C [33] of the same compound?
The viability, T/C was 10.2%.

And the viability, T/C [34]?
The viability, T/C was 11.8%.

And the viability, T/C [35]?
Its viability, T/C is 12.4%.

What about the viability, T/C [36] of the same compound?
The viability, T/C was 8.8%.

Which IC50 (second compound 0.0316 µM) does the source give for `C[C@@H](NC(=O)c1ncnc(N)c1Cl)c1ncc(C(=O)Nc2cc(C(F)(F)F)c(Cl)cn2)s1` + Cc1nc(NC(=O)N2CCCC2C(N)=O)sc1-c1ccnc(C(C)(C)C(F)(F)F)c1 here?
Its IC50 is over 10 µM.

And the IC50 (second compound 0.1 µM)?
The IC50 was over 10 µM.

What about the IC50 (second compound 0.316 µM) of the same compound?
Its IC50 is over 10 µM.

And the IC50 (second compound 1 µM)?
Its IC50 is 0.192 µM.

What about the IC50 (second compound 3.16 µM) of the same compound?
The IC50 was under 0.0316 µM.

What about the IC50 (second compound 10 µM) of the same compound?
The IC50 was under 0.0316 µM.

And the viability, T/C [1]?
Its viability, T/C is 91.4%.

What about the viability, T/C [2] of the same compound?
The viability, T/C was 92.8%.

What about the viability, T/C [3] of the same compound?
The viability, T/C was 101%.

What about the viability, T/C [4] of the same compound?
Its viability, T/C is 97.8%.

What about the viability, T/C [5] of the same compound?
Its viability, T/C is 114%.

And the viability, T/C [6]?
Its viability, T/C is 92.1%.

What about the viability, T/C [7] of the same compound?
Its viability, T/C is 84.7%.

And the viability, T/C [8]?
The viability, T/C was 86%.

And the viability, T/C [9]?
The viability, T/C was 87%.

What about the viability, T/C [10] of the same compound?
The viability, T/C was 89.4%.

What about the viability, T/C [11] of the same compound?
The viability, T/C was 84.1%.

And the viability, T/C [12]?
Its viability, T/C is 81.2%.

And the viability, T/C [13]?
The viability, T/C was 66.5%.

And the viability, T/C [14]?
The viability, T/C was 69.3%.

And the viability, T/C [15]?
Its viability, T/C is 65.1%.

What about the viability, T/C [16] of the same compound?
Its viability, T/C is 72%.

And the viability, T/C [17]?
Its viability, T/C is 67%.

What about the viability, T/C [18] of the same compound?
Its viability, T/C is 71.3%.

What about the viability, T/C [19] of the same compound?
The viability, T/C was 53.3%.

And the viability, T/C [20]?
The viability, T/C was 49.1%.

What about the viability, T/C [21] of the same compound?
Its viability, T/C is 47.2%.

What about the viability, T/C [22] of the same compound?
Its viability, T/C is 49.9%.

What about the viability, T/C [23] of the same compound?
The viability, T/C was 49.5%.

And the viability, T/C [24]?
Its viability, T/C is 45.2%.

And the viability, T/C [25]?
Its viability, T/C is 28.2%.

What about the viability, T/C [26] of the same compound?
Its viability, T/C is 28.7%.

What about the viability, T/C [27] of the same compound?
The viability, T/C was 27.6%.

What about the viability, T/C [28] of the same compound?
The viability, T/C was 29%.

And the viability, T/C [29]?
Its viability, T/C is 31%.

What about the viability, T/C [30] of the same compound?
The viability, T/C was 27.4%.

And the viability, T/C [31]?
Its viability, T/C is 13.3%.

What about the viability, T/C [32] of the same compound?
Its viability, T/C is 14.4%.

What about the viability, T/C [33] of the same compound?
The viability, T/C was 15%.

And the viability, T/C [34]?
Its viability, T/C is 17%.

What about the viability, T/C [35] of the same compound?
Its viability, T/C is 14.9%.

What about the viability, T/C [36] of the same compound?
The viability, T/C was 11.6%.
